Laboratory results from patent US5028605A, “8-alkylaminoimidazo(1,2-a)pyrazines and derivatives, their preparation and their application in therapy” (l'Universite de Montpellier I, priority 1986, dated 1991).
pEC50: −log10 of the molar value.

Columns and labels:
[1] = system: duodenum; test: Antispasmodic activity: barium chloride-induced contraction of isolated rat duodenum (Magnus); conditions: for ED50 Theo/ED50 product (antispasmodic activity): barium chloride 10^-4 M, isolated rat duodenum, 37° C., mean of 5 to 6 determinations
Description: Fragments of duodenum are removed from male rats (200 g), fasted for 24 hours and killed by decapitation, and are mounted, after being washed, in a thermostatted (37° C.) isolated organ cell and maintained in survival in Tyrode's solution according to Magnus's classical technique.
The spasmogenic agent used is barium chloride (10^-4 M).
In the first instance, the spasmogenic agent is added to the nutrient bath and, as soon as the contraction of the organ reaches its maximum, the relaxant agent is added to the medium. Working in relation to a fixed concentration of barium chloride with variable concentrations of relaxant, the ED50 of the latter, capable of reducing the induced contraction by 50%, is determined.
The results expressed in Table IV below show the ratio ED50 Theo/ED50 product, established on the basis of the mean of the results of 5 to 6 determinations per product (ED50theophylline=8×10^-4 M).

[2] = system: guinea pig trachea; test: Isolated guinea pig trachea: anti-contractional activity against carbachol; conditions: for EC50 Theo/EC50 product (anti-contractional activity, trachea): carbachol 10^-4 M, isolated guinea pig trachea, mean of 5 to 6 determinations
Description: Guinea pigs of both sexes weighing on average 400 to 600 g are sacrificed, and the tracheas are removed and placed at 37° C. in an oxygenated environment (95% O2 -5% CO2) in Krebs fluid of the following composition (mM): NaCl (116), MgSO4 (1.2), KCl (3.7), CaCl2 (2.6), KH2 PO4 (2.2), NaHCO3 (24.9), glucose (10). The tracheal segments are then mounted horizontally between two hooks, one of which is fixed to the base of the isolated organ cell and the other is attached to a myograph under a tension of 0.5 g. The organ is left at rest for one hour and is subjected to four washes. The contraction-inducing reagent (carbachol) is added at a concentration (10^-4 M) greater than the concentration giving the maximum effect. After stabilization of the contractional effect, gradually increasing accumulative amounts of the test products are added to the cell. The bronchodilatory effect is measured as the percentage inhibition of the maximal contraction and EC50 represents the concentration inhibiting this concentration by 50%.

[3] = system: uterine horns; test: Uterine relaxant activity: spontaneous contractions of isolated rat uterine horn fragments; conditions: for ED50 Theo/ED50 product (uterine relaxant activity): isolated rat uterine horn, spontaneous contractions, mean of 5 to 10 determinations
Description: Female rats (150-180 g) are killed by decapitation 24 hours after the intraperitoneal administration of stilbestrol (0.1 mg/kg). The uterine horns are removed and fragments mounted in a thermostatted (37° C.) isolated organ cell and maintained in survival in oxygenated De Jalon's solution of composition (mM): NaCl (153.8); KCl (5.6); CaCl2 (2.16); NaHCO3 (1.8); dextrose (5.5). One end of the uterine fragment is maintained fixed, while the other is attached to a recording myograph under a tension of the order of 0.5 g. The spontaneous uterine contractions are recorded on a kymograph. The organ is left at rest for 30 minutes and washed three times. The test products are introduced directly into the bath after being dissolved in De Jalon's solution, and the activity measured (ED50) corresponds to the dose capable of reducing the magnitude of the spontaneous contractions by 50%.
The results expressed in Table V below show the ratio ED50 Theo/ED50 product, established on the basis of the mean of the results of 5 to 10 determinations per product. (ED50 theophylline=0.9×10^-3 M)

[4] = system: mice; test: Motor activity: spontaneous activity in mice (neurosedative effect); format: in vivo, mouse; conditions: male mice, 50 minutes
Description: The measurement of the neurosedative effect is based on the test of activity measurements in mice. […] Five minutes after the administration, the animals are placed in activity-measuring cages, which record their movements digitally by means of the interruption of beams of light. The results are recorded in Table IX and expressed as the percentage variation (increase or decrease ) in activity compared with the controls during a period of 50 minutes following the administration.

[5] = system: histamine-induced bronchoconstriction, guinea pigs; test: Antibronchospastic activity: histamine-induced bronchospasm in anesthetized guinea pigs; format: in vivo, guinea pig; conditions: for ED50 Theo/ED50 product (bronchospasm induced in guinea pigs): intravenous, 30 seconds before histamine, mean of 5 to 8 determinations
Description: Guinea pigs of both sexes weighing between 400 and 600 g are anesthetized with ethyl carbamate ([…] i.p.). After tracheotomy, the animal is placed under artificial respiration at a constant flowrate (Palmer pump 1 m1/100 g×60/min). A take-off at the tracheal cannula enables the volume of air to be gaged at each inhalation by means of a Marey drum. Bronchospasm is induced by intraveneous (jugular) administration of histamine. For each animal, the dose of histamine (8 to 12 μg/kg) inducing an increase in the recording trace equal to double its initial value is determined. The dose adopted should provide three identical responses at intervals of 10 minutes.
The test product is administered intraveneously and then, 30 seconds later, histamine is administered again.

[6] = system: left atrium; test: Cardiac activity: inotropic function, isolated electrically stimulated left atrium; design: species or system guinea pig; conditions: concentration producing increase in magnitude of 0.5 g
Text: (§1) Guinea pigs of both sexes weighing between 300 and 500 g are killed by decapitation. The hearts are rapidly removed and placed in an oxygenated environment (95% O2 -5% CO2) in Chenoweth-Koelle's solution of the following composition (mM): NaCl (120), KCl (5.63), CaCl2 (2.0), dextrose (9.7), MgCl2 (2.0), NaHCO3 (26.0). The right and left atria are then separated from the heart and mounted in an isolated organ cell. The right atrium beats spontaneously and the left atrium is electrically stimulated. The organs under a tension of 1 g are left at rest for two hours and washed every fifteen minutes.
(§2) The products are added directly to the nutrient bath. The right atrium is used for measuring the modifications of rate (chronotropic function) whereas the left atrium indicates the modifications brought about in the contractile force (inotropic function).
For the inotropic function, the concentration capable of producing an increase in magnitude of 0.5 g with respect to the basic contraction is measured.

[7] = system: right atrium; test: Cardiac activity: chronotropic function, isolated spontaneously beating right atrium; design: species or system guinea pig; conditions: concentration producing 20% increase in rate
Text: as §1, §2
For the chronotropic function, the concentration capable of producing a 20% increase in the basic value of the rate is determined.

SMILES | pEC50 ([1]; Rattus norvegicus, reduces barium chloride-induced contraction by 50%, read-out: ED50 theophylline (antispasmodic)) | pEC50 ([2]; Cavia porcellus, 50% inhibition of maximal carbachol contraction, read-out: EC50 Theo (anti-contractional activity, trachea)) | pEC50 ([3]; Rattus norvegicus, reduces magnitude of spontaneous contractions by 50%, read-out: ED50 theophylline (uterine relaxant)) | spontaneous activity - % variation compared with the controls, increase (.uparw.) ([4]; 55 μmol/kg intraperitoneally) | spontaneous activity - % variation compared with the controls, increase (.uparw.) ([4]; 166 μmol/kg intraperitoneally) | ED50 ([5]; Cavia porcellus, iv, read-out: ED50 Theo (bronchospasm induced in guinea pigs)) | ED50 Theo/ED50 product (antispasmodic activity) [1] | EC50 Theo/EC50 product (anti-contractional activity, trachea) [2] | ED50 Theo/ED50 product (uterine relaxant activity) [3] | ED Theo/ED Product, inotropic function [6] | spontaneous activity - % variation compared with the controls, decrease (.dwnarw.) ([4]; 55 μmol/kg intraperitoneally) | spontaneous activity - % variation compared with the controls, decrease (.dwnarw.) ([4]; 166 μmol/kg intraperitoneally) | ED Theo/ED Product, chronotropic function [7] | ED50 Theo/ED50 product (bronchospasm induced in guinea pigs) [5]
Cn1c(=O)c2[nH]cnc2n(C)c1=O [theophylline, reference compound] | 3.10 | 3.00 | 3.05 | 130% | 170% | 43 µmol/kg | – | – | – | – | – | – | – | –
CNc1nccn2c(Br)cnc12 [Compound 6, 3-Bromo-8-methylaminoimidazo[1,2-a]pyrazine] | – | – | – | – | – | – | 32 | 12.5 | 9 | 5 | 25% | 57% | 6 | 2
CNc1nc(Br)cn2ccnc12 [Compound 9, 6-bromo-8-methylaminoimidazo[1,2-a]pyrazine] | – | – | – | – | – | – | 20 | 8.3 | 5.6 | 50 | 74% | 83% | 25 | 5.4
CCOC(=O)c1cn2ccnc(N)c2n1 [Compound 17, ethyl 8-aminoimidazo[1,2-a]pyrazine-2-carboxylate] | – | – | – | 28% | – | – | 13 | – | 2.6 | < 1 | – | 17% | < 1 | 1.1
CCNc1nc(Br)cn2ccnc12 [Compound 10, 6-bromo-8-ethylaminoimidazo[1,2-a]pyrazine] | – | – | – | – | – | – | 40 | 5 | 7.2 | 4 | 13% | 73% | 15 | 2
Nc1nc(Br)cn2ccnc12 [Compound 8, 8-amino-6-bromoimidazo[1,2-a]pyrazine] | – | – | – | – | – | – | 32 | 11.3 | 3 | 10 | 53% | 83% | 2 | 4
